Residues, ends and D or L forms follow the SMILES beside them. *: point of attachment. Cbz = O=C(OCc1ccccc1)*; CH2F = FC*
Experiments:
apoptotic Jurkat cells = test: Confocal immunofluorescence microscopy of scFv and annexin V binding to apoptotic Jurkat cells; assay type: cell-based
Procedure: (§1) Jurkat cells were harvested from culture and resuspended at a density of 10^6 /ml in RPMI 1640 containing 10% fetal bovine'serum (FBS). Apoptosis was induced for 12 hours with 1.0 μM staurosporine (Sigma Chemical Co. of St. Louis, Mo.), 2.0 μM camptothecin (Sigma), or 2.0 μg/ml anti-Fas antibody (clone 7C11; Beckman Coulter Inc. of Brea, Calif.). To inhibit apoptosis, parallel cultures were pre-incubated for 2 hours with 20 μM z-Val-Ala-Asp(Ome)-fluoromethylketone (z-VAD(Ome)-FMK) (Enzyme System Products of Livermore, Calif.). To inhibit membrane blebbing, parallel cultures were pre-incubated for 2 hours with 10 μM Y-27632 (Tocris of Ballwin, Mo.). At the end of the incubation period, 5×10^5 cells were aliquoted into tubes and stained for flow cytometry or confocal microscopy.
Cells were washed with HBSS and fixed with ice-cold 4% paraformaldehyde for 10 minutes. […] After incubation with the scFv, cells were washed once with HBSS/FBS and incubated with biotinylated annexin V (BD Biosciences) for 15 minutes on ice. Cells were then washed twice with HBSS/FBS and stained with streptavidin-conjugated Alexaflour 488 (Molecular Probes), Rhodamine Red-conjugated human serum IgG (Jackson Immunoresearch Laboratories) and the nucleic acid dye TO-PRO-3 (Molecular Probes). Following staining for 15 minutes on ice, cells were washed with HBSS/FBS and mounted onto poly-L-lysine-coated glass slides for viewing with a Zeiss LSM 510 laser scanning microscope (Carl Zeiss, Inc. of Thorwood, N.Y.).
Cells were washed with HBSS and fixed with ice-cold 4% paraformaldehyde for 10 minutes. […] After incubation with the scFv, cells were washed once with HBSS/FBS and incubated with biotinylated annexin V (BD Biosciences) for 15 minutes on ice. Cells were washed twice with HBSS/FBS and stained with streptavidin-conjugated Alexaflour 488 (Molecular Probes), Rhodamine Red-conjugated human serum IgG (Jackson Immunoresearch Laboratories) and the nucleic acid dye TO-PRO-3 (Molecular Probes). After a 15 minute incubation on ice, cells were washed with HBSS/FBS and mounted onto poly-L-lysine-coated glass slides for viewing with a Zeiss LSM 510 laser scanning microscope (Carl Zeiss Inc., Thorwood, N.Y.).

Jurkat cells = test: Flow cytometry of annexin V and scFv binding to Jurkat cells treated with staurosporine, camptothecin or anti-Fas (12 hr); assay type: cell-based
Procedure: as §1
Cells were washed with 4.0 ml of ice-cold Hanks Balanced Salt Solution (Mediatech, Herndon, Va.) containing 1.0 mM CaCl2, 3% FBS, and 0.02% NaN3 (HBSS/FBS). […] 30,000 events were examined per sample on a FACSCalibur (BD Biosciences). The staining profiles were analyzed using FLOWJO™ software (Treestar, Inc. of San Carlos, Calif.).

For `C[C@@H](N)[C@H]1CC[C@H](C(=O)Nc2ccncc2)CC1` [Y-27632], the “effect on binding of annexin V” value (apoptotic Jurkat cells) was “did not affect”, the “blebbing and nuclear fragmentation” value (apoptotic Jurkat cells; anti-Fas treated cells, 10 μM) was “inhibited” and the “effect on binding of the D56R/S76R scFv” value (apoptotic Jurkat cells; anti-Fas treated cells, 10 μM) was “greatly reduced”.

In the case of `CC[C@@]1(O)C(=O)OCc2c1cc1n(c2=O)Cc2cc3ccccc3nc2-1` [camptothecin], the “cells observed to bind annexin V” value (Jurkat cells; 12 hr incubation with the apoptotic stimulus) is reported as “Approximately 29%”.

In the case of `COC(=O)C[C@H](NC(=O)[C@H](C)NC(=O)[C@@H](NC(=O)OCc1ccccc1)C(C)C)C(=O)CF` [z-VAD(OMe)-FMK, z-Val-Ala-Asp(Ome)-fluoromethylketone] (Cbz-Val-Ala-Asp(OMe)-CH2F), the “effect of pretreatment on binding of the D56R/S76R scFv” value (Jurkat cells; 20 μM, 2 hours pre-incubation) is reported as “largely eliminated”, the “effect of pretreatment on staining with annexin V” value (Jurkat cells; 20 μM, 2 hours pre-incubation) is reported as “decreased to near-background levels” and the “effect of pretreatment on staining of cells” value (apoptotic Jurkat cells; cells treated with camptothecin or anti-Fas antibody) is reported as “greatly reduced”. The “effect of pretreatment on annexin V and scFv binding” value (apoptotic Jurkat cells; cells treated with staurosporine) was “reduces both annexin V and scFv binding to background levels”.

From patent US20030138419A1, “Recombinant antibody fusion proteins and methods for detection of apoptotic cells” (The University of Tennessee Research Corporation, priority 2001, published 2003)
